Source: US8524455B2, “Methods and compositions related to TR4 ligand” (University of Rochester, priority 2009, dated 2013)

Columns and labels:
TR4 [1] = molecular target: T1, TR4 (Homo sapiens, UniProt P49116); test: CD36-luc luciferase reporter assay, TR4 co-transfected into CV-1 cells; type: cell-based; set-up: pCMX-TR4 plasmids consist of the full length human TR4 gene subcloned into pCMX vector; expressed in transfected cells; host or cells: CV-1; settings: 24 h
T1 sequence (P49116 1-615 isoform P49116-2): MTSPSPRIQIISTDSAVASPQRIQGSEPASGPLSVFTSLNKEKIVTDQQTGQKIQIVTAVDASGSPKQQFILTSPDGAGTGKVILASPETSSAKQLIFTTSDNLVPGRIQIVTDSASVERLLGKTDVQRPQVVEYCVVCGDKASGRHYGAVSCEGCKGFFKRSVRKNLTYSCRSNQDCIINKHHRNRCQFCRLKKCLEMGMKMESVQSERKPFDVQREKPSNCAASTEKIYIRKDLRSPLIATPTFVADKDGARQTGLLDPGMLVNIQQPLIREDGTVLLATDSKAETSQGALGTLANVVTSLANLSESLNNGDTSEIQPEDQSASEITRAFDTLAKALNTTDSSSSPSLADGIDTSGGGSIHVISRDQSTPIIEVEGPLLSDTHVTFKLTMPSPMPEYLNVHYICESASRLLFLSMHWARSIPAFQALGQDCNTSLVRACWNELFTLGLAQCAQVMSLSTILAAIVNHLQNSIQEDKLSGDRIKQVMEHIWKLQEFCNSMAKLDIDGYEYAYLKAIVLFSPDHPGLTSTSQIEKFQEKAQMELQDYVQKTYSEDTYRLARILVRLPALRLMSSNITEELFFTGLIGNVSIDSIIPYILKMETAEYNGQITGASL
Description: After 24 h, cells were harvested for Luciferase activity. The relative luciferase activity was calculated while setting pCMX-TR4 in vehicle control as 1. (FIG. 6B) Protease protective peptide mapping were analyzed in liganded-PPARγ and TR4. […] The reaction was stopped by adding 2×SDS-sample buffer. The protease digestion pattern was resolved by gel electrophoresis in 12.5% (for PPARγ), and 16% (for TR4) SDS-PAGE. […] After 24 h, cells were harvested for Luciferase activity. The relative luciferase activity was calculated while setting pCMX-TR4 in vehicle control as 1.
Mouse macrophage RAW 264.7 cells, obtained from ATCC, were cultured in DMEM medium supplemented with 8% fetal bovine serum and 100 µg/ml penicillin-streptomycin and maintained on the petri-dishes. […] After 24 h, cells were harvested for luciferase assays.

PPARγ/RXR = molecular target: T2, PPARγ/RXR (Homo sapiens, UniProt P37231); test: CD36-luc luciferase reporter assay, PPARγ/RXR co-transfected into CV-1 cells; type: cell-based; settings: 24 h
T2 construct: expressed in transfected cells; host or cells: CV-1
T2 sequence (P37231 29-505 limits assumed): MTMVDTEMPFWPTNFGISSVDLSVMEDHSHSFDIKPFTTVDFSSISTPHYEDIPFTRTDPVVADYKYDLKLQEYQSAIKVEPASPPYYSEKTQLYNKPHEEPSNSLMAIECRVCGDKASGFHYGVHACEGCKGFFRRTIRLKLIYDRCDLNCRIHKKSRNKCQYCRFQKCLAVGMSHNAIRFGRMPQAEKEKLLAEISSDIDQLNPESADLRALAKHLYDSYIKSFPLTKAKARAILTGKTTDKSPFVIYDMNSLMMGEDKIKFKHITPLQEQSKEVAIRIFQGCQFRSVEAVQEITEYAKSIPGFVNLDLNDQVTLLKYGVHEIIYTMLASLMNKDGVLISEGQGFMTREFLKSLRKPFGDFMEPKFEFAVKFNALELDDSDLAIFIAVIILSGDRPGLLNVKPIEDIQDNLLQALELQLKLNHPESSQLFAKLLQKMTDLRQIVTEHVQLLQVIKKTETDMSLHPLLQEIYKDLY
T2 sequence (P19793 1-462 partner): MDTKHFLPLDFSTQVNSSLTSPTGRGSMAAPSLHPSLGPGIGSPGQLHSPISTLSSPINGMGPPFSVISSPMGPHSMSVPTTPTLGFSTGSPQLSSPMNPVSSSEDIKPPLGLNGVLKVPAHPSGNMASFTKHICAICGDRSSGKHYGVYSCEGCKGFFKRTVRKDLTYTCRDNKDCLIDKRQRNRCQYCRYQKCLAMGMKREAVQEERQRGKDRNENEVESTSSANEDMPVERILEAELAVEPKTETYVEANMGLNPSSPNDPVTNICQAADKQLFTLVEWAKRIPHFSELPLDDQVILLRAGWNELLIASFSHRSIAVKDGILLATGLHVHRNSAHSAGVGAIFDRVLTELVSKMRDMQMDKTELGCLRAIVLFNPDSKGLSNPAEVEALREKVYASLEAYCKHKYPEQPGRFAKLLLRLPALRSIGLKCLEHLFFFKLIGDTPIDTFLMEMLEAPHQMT

TR4 [2] = molecular target: T1, TR4; test: Limited proteolysis (protease protective peptide mapping) of [35S]-TR4; type: binding; set-up: pCMX-TR4 plasmids consist of the full length human TR4 gene subcloned into pCMX vector; expressed in transfected cells; host or cells: H1299; settings: incubated 15 min, trypsin 0.25 and 2.5 g/ml 10 min; compared to DMSO control
Description: (FIG. 6A) PUFAs metabolites induced PPAR- and TR4-mediated CD36 activity. […] After 24 h, cells were harvested for Luciferase activity. The relative luciferase activity was calculated while setting pCMX-TR4 in vehicle control as 1. (FIG. 6B) Protease protective peptide mapping were analyzed in liganded-PPARγ and TR4. […] The reaction was stopped by adding 2×SDS-sample buffer. The protease digestion pattern was resolved by gel electrophoresis in 12.5% (for PPARγ), and 16% (for TR4) SDS-PAGE. […] After 24 h, cells were harvested for Luciferase activity. The relative luciferase activity was calculated while setting pCMX-TR4 in vehicle control as 1.

[3] = 1 and 20 µM in DMSO, compared with AA and EPA
[4] = 1, 10, 50, 100 and 250 µM in BSA

Structure (SMILES) | TR4-mediated CD36 expression (CD36-luc luciferase activity) (TR4 [1]; [3]) | PPAR/RXR-mediated CD36 expression (CD36-luc luciferase activity) (PPARγ/RXR; [3]) | Protease digestion pattern of ligand-bound TR4 (TR4 [2]) | TR4-mediated CD36 expression (CD36-luc luciferase activity) (TR4 [1]; [4]) | PPAR/RXR-mediated CD36 expression (CD36-luc luciferase activity) (PPARγ/RXR; [4])
CCCCC[C@H](O)/C=C/C=C\C/C=C\C/C=C\CCCC(=O)O [15-HETE] | much better induction | much better induction | several changed proteolysis resisting fragments | – | –
CCCCC/C=C\C/C=C\C/C=C\C/C=C\CCCC(=O)O [AA, arachidonic acid] | – | – | – | mildly induced | mildly induced
CCCCCC(O)/C=C/C=C\CCCCCCCC(=O)O (centres unmarked) [13-HODE] | much better induction | much better induction | several changed proteolysis resisting fragments | – | –
